Drawing on patent publication US9868735B2, “Benzazepine ketone compounds as glycogen phosphorylase inhibitor, preparation method therefor, and medical uses” (CHENGDE MEDICAL UNIVERSITY, priority 2013, dated 2018), this text covers IC50 for one molecule.

This experiment has as its target T1, rabbit muscle glycogen phosphorylase (GPa) (Oryctolagus cuniculus, UniProt P00489).
T1 sequence (P00489 2-843 limits assumed): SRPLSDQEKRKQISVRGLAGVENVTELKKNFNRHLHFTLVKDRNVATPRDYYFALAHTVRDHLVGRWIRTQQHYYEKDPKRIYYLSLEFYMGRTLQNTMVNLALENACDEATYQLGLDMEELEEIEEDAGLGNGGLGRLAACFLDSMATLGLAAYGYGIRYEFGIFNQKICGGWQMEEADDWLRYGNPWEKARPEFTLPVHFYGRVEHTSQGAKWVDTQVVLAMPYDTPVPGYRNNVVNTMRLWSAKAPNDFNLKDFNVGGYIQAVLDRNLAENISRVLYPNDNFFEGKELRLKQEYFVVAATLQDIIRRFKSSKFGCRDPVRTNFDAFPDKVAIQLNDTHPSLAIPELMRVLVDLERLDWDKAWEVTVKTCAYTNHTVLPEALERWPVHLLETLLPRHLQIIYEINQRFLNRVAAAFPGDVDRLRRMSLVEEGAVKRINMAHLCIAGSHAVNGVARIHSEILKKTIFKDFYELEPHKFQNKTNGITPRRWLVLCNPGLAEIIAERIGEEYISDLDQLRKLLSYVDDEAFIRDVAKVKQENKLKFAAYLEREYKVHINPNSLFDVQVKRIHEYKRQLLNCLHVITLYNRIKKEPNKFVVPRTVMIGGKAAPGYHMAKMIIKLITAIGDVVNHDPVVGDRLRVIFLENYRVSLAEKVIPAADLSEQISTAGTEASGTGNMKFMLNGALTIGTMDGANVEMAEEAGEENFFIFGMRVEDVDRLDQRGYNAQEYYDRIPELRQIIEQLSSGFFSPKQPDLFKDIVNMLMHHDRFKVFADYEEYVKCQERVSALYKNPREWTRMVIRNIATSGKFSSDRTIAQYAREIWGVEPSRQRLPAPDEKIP
In words: Glycogen phosphorylase in vitro inhibitory activity assay. The class given is biochemical. The note with it: GPa 250 ng/100 μl, 30° C. 20 minutes, colorimetry at 655 nm. On the procedure: Glycogen Phosphorylase In Vitro Inhibitory Activity Assay
Preparation of reagents: 1) preparation of color developing solution: 5 g of ammonium molybdate was weighed, dissolved in 500 ml of 1M HCl and stirred with a stirrer until completely dissolved. Then the mixture was added with 190 mg of malachite green with stirring until completely dissolved. The solution prepared was wrapped with an aluminum foil to protect it from exposure to light; 2) preparation of buffer: {circumflex over (1)} 0.5958 g of Hepes was precisely weighed and dissolved in 5 ml H2O. […]
Determination of dose-response curve of rabbit muscle glycogen phosphorylase activity: a dose-response curve was determined by reading OD values of various concentrations of GPa solutions at 655 nm after added with a color developing solution. The amount of GPa can be 250 ng as determined from the dose-response curve.
Experimental procedure: 1) designing PC (positive control), Blank (blank control), positive drug (caffeine); 2) adding 52 μl of reaction buffer; 3) adding the test compound to a final concentration; 4) adding 1 μl of enzyme to a final concentration of 250 ng/100 μl; 5) adding 150 μl of the color developing solution; 6) reacting at 30° C. for 20 minutes; 7) colorimetry determination at a wavelength of 655 nm; 8) reading data and calculating inhibitory activity: Inhibitory Activity=(PC−test sample)/(PC−Blank)

SMILES strings stand for the structures.

In general, IC50 refers to the concentration that inhibits the measured activity by half. `O=C(Nc1ccc2c(c1)C(=O)NCCO2)c1cc2cc(Cl)ccc2[nH]1` [Example 1, 7-(5-Chloro-1H-indole-2-carboxamido)-3,4-dihydrobenzo[f][1,4]oxazepin-5(2H)-one] registered a 50% inhibitory concentration (IC50) of less than 100 nM.
